Experimental data published in patent US20220287345A1, “SOLUBILITY ENHANCEMENT OF POORLY SOLUBLE ACTIVES” (Evonik Operations GmbH, priority 2019, published 2022).
Converted amounts (≈) assume the structure as drawn.

Assay: physchem
Settings: for solubility: water, thermodynamic from solid
Method: Analysis of the blend was done and its solubility in water was analyzed (table 3).
All the tablets prepared as shown in table 8 were analyzed in water to check whether there is an enhancement in solubility of the drug when compared to the pure form (table 9).
The compressed tablets prepared according table 13 were analyzed in water to check whether there is any enhancement in solubility of the drug when compared to the pure form (table 14).
All the blends and tablets prepared according to table 15 were analyzed in water for any enhancement in solubility of the drug when compared to the pure form.
The capsules were further analyzed for water solubility of the active ingredient.
The solution was spray dried using a spray drier (Inlet temperature: 55-60° C., Aspirator: 90-100%).

Molecule Cc1ccc(-c2cc(C(F)(F)F)nn2-c2ccc(S(N)(=O)=O)cc2)cc1 [Experiment C-1, Celecoxib] has a solubility of 0.1 µg/mL (≈ 0.262 µM).

With COc1cc(/C=C/C(=O)CC(=O)/C=C/c2ccc(O)c(OC)c2)ccc1O [Experiment C-4, Curcumin] the “Solubility of AFI/API in water” value was 0.0 µg/mL.

With O=c1c(O)c(-c2ccc(O)c(O)c2)oc2cc(O)cc(O)c12 [Experiment C-6, Quercetin] the solubility was 3.6 µg/mL (≈ 11.9 µM).

In the case of Cc1ccc(S(=O)(=O)NC(=O)NN2CC3CCCC3C2)cc1 (centres unmarked) [Experiment C-8, Gliclazide], the solubility is reported as 21 µg/mL (≈ 64.9 µM).

Molecule NC(=O)N1c2ccccc2C=Cc2ccccc21 [Experiment C-9, Carbamazepine] has a solubility of 240 µg/mL (≈ 1020 µM).
